Test results from PubChem BioAssay AID248 (DTP/NCI, 2004).
“And” between values parts separate entries of the source, which are not always exact repeats. Equal entries are not always repeated. Toxic doses and inconclusive results are not listed. Cut-off read from the data, not from the text of the source: active = T/C of 150% or more; inactive = T/C below 125%.

Tested on: L1210 leukemia ip in BDF1 mice, survival T/C
Assay: NCI In Vivo Anticancer Drug Screen. Data for tumor model L1210 Leukemia (intraperitoneal) in B6D2F1 (BDF1) mice
Conditions: endpoint: mean survival time, higher = longer survival
How it was run: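 Survival endpoint. Drug-treated group vs vehicle group, expressed as T divided by C. Tumor passaged by transplantation.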

[1] = dose: 6.25 mg/kg/injection, schedule: Q01DX009 (ip), vehicle: saline with Tween-80

Measured: T/C

Oc1ccc(/C=N/NC(=S)NN2CCOCC2)nc1
inactive: [1] 108 % of control | dose: 12.5 mg/kg/injection, schedule: Q01DX009 (ip), vehicle: saline with Tween-80 116 % of control | dose: 22.0 mg/kg/injection, schedule: Q04DX002 (ip), vehicle: saline with Tween-80 108 % of control | dose: 25.0 mg/kg/injection, schedule: Q01DX009 (ip), vehicle: saline with Tween-80 108 % of control and 119 % of control | dose: 33.0 mg/kg/injection, schedule: Q04DX002 (ip), vehicle: saline with Tween-80 101 % of control | dose: 50.0 mg/kg/injection, schedule: Q04DX002 (ip), vehicle: saline with Tween-80 111 % of control

OCC1OC(n2cc(Cl)c3cncnc32)C(O)C1O (centres undefined)
inactive: dose: 50.0 mg/kg/injection, schedule: Q01DX005 (ip), vehicle: saline 101 % of control

O=c1cc(N=Nc2ccc(O)cc2)[nH]c(=O)[nH]1
inactive: dose: 100.0 mg/kg/injection, schedule: Q01DX009 (ip), vehicle: water 94 % of control | dose: 100.0 mg/kg/injection, schedule: Q04DX003 (ip), vehicle: water 103 % of control | dose: 200.0 mg/kg/injection, schedule: Q01DX009 (ip), vehicle: water 94 % of control | dose: 200.0 mg/kg/injection, schedule: Q04DX003 (ip), vehicle: water 103 % of control | dose: 400.0 mg/kg/injection, schedule: Q01DX009 (ip), vehicle: water 92 % of control | dose: 400.0 mg/kg/injection, schedule: Q04DX003 (ip), vehicle: water 104 % of control

COC(=O)/C=C/CBr
inactive: dose: 0.2 mg/kg/injection, schedule: Q01DX015 (ip), vehicle: carboxymethylcellulose (CMC) 91 % of control | dose: 4.0 mg/kg/injection, schedule: Q01DX015 (ip), vehicle: carboxymethylcellulose (CMC) 109 % of control | dose: 5.0 mg/kg/injection, schedule: Q01DX001 (ip), vehicle: carboxymethylcellulose (CMC) 95 % of control | dose: 8.0 mg/kg/injection, schedule: Q01DX015 (ip), vehicle: carboxymethylcellulose (CMC) 91 % of control | dose: 10.0 mg/kg/injection, schedule: Q01DX001 (ip), vehicle: carboxymethylcellulose (CMC) 93 % of control | dose: 16.0 mg/kg/injection, schedule: Q01DX015 (ip), vehicle: carboxymethylcellulose (CMC) 100 % of control and 102 % of control | dose: 32.0 mg/kg/injection, schedule: Q01DX015 (ip), vehicle: carboxymethylcellulose (CMC) 100 % of control

CC(C)(Cc1ccccc1)C(C(=O)O)C(=O)O
inactive: dose: 100.0 mg/kg/injection, schedule: Q01DX001 (ip), vehicle: gum acacia 91 % of control | dose: 200.0 mg/kg/injection, schedule: Q01DX001 (ip), vehicle: gum acacia 95 % of control

ClC1=C(Cl)C(Cl)=C(Cl)C1=Cc1ccccc1
inactive: dose: 3.13 mg/kg/injection, schedule: Q01DX009 (ip), vehicle: saline with Tween-80 113 % of control | [1] 107 % of control | dose: 25.0 mg/kg/injection, schedule: Q04DX002 (ip), vehicle: Klucel (hydroxypropylcellulose) (HPC) 100 % of control | dose: 50.0 mg/kg/injection, schedule: Q04DX002 (ip), vehicle: Klucel (hydroxypropylcellulose) (HPC) 90 % of control

CC(CCC/C=C/CCCN(C)C(=N)N)CC(C)C1OC(=O)C(C)C(O)/C=C/C(C)C(O)C(C)C(O)C(C)C(O)CCCC(O)CC2(O)OC(CC(OC(=O)CC(=O)O)CC(O)CC(O)C(C)C(O)/C=C/C=C/C1C)CC(O)C2O (centres undefined)
inactive: dose: 0.48 mg/kg/injection, schedule: Q01DX009 (ip), vehicle: saline 90 % of control | dose: 0.73 mg/kg/injection, schedule: Q01DX009 (ip), vehicle: saline 92 % of control | dose: 0.96 mg/kg/injection, schedule: Q04DX003 (ip), vehicle: saline 106 % of control | dose: 1.09 mg/kg/injection, schedule: Q01DX009 (ip), vehicle: saline 92 % of control | dose: 1.46 mg/kg/injection, schedule: Q04DX003 (ip), vehicle: saline 104 % of control | dose: 2.18 mg/kg/injection, schedule: Q04DX003 (ip), vehicle: saline 120 % of control | dose: 3.2 mg/kg/injection, schedule: Q04DX003 (ip), vehicle: saline 97 % of control | dose: 4.9 mg/kg/injection, schedule: Q04DX003 (ip), vehicle: saline 103 % of control and 86 % of control | dose: 7.3 mg/kg/injection, schedule: Q04DX003 (ip), vehicle: saline 92 % of control | dose: 23.0 micrograms/kg/injection, schedule: Q01DX001 (ip), vehicle: saline 98 % of control | dose: 23.0 micrograms/kg/injection, schedule: Q01DX009 (ip), vehicle: saline 100 % of control | dose: 23.0 micrograms/kg/injection, schedule: Q04DX003 (ip), vehicle: saline 105 % of control | dose: 47.0 micrograms/kg/injection, schedule: Q01DX001 (ip), vehicle: saline 104 % of control | dose: 47.0 micrograms/kg/injection, schedule: Q01DX009 (ip), vehicle: saline 108 % of control | dose: 47.0 micrograms/kg/injection, schedule: Q04DX003 (ip), vehicle: saline 106 % of control | dose: 95.0 micrograms/kg/injection, schedule: Q01DX001 (ip), vehicle: saline 97 % of control | dose: 95.0 micrograms/kg/injection, schedule: Q01DX009 (ip), vehicle: saline 94 % of control | dose: 95.0 micrograms/kg/injection, schedule: Q04DX003 (ip), vehicle: saline 101 % of control | dose: 141.0 micrograms/kg/injection, schedule: Q01DX009 (ip), vehicle: saline 106 % of control | dose: 141.0 micrograms/kg/injection, schedule: Q04DX003 (ip), vehicle: saline 97 % of control | dose: 215.0 micrograms/kg/injection, schedule: Q01DX009 (ip), vehicle: saline 105 % of control | dose: 215.0 micrograms/kg/injection, schedule: Q04DX003 (ip), vehicle: saline 100 % of control | dose: 322.0 micrograms/kg/injection, schedule: Q01DX009 (ip), vehicle: saline 103 % of control | dose: 322.0 micrograms/kg/injection, schedule: Q04DX003 (ip), vehicle: saline 103 % of control

CCN(C)C(=O)Nc1cccc([N+](=O)[O-])c1
inactive: dose: 100.0 mg/kg/injection, schedule: Q04DX002 (ip), vehicle: Klucel (hydroxypropylcellulose) (HPC) 101 % of control | dose: 200.0 mg/kg/injection, schedule: Q04DX002 (ip), vehicle: Klucel (hydroxypropylcellulose) (HPC) 93 % of control | dose: 400.0 mg/kg/injection, schedule: Q04DX002 (ip), vehicle: Klucel (hydroxypropylcellulose) (HPC) 93 % of control

Brc1cccc([Si](c2ccccc2)(c2ccccc2)c2cccc(Br)c2)c1
inactive: dose: 100.0 mg/kg/injection, schedule: Q04DX003 (ip), vehicle: saline with Tween-80 98 % of control | dose: 200.0 mg/kg/injection, schedule: Q04DX003 (ip), vehicle: saline with Tween-80 98 % of control | dose: 400.0 mg/kg/injection, schedule: Q04DX003 (ip), vehicle: saline with Tween-80 95 % of control

CC(=O)Nc1ccc2c(c1)-c1ccc(F)cc1C2
inactive: dose: 100.0 mg/kg/injection, schedule: Q01DX001 (ip), vehicle: carboxymethylcellulose (CMC) 94 % of control | dose: 200.0 mg/kg/injection, schedule: Q01DX001 (ip), vehicle: carboxymethylcellulose (CMC) 96 % of control | dose: 400.0 mg/kg/injection, schedule: Q01DX001 (ip), vehicle: carboxymethylcellulose (CMC) 102 % of control

O=C(OCCCCCCCOC(=O)c1cccc([N+](=O)[O-])c1)c1cccc([N+](=O)[O-])c1
inactive: dose: 100.0 mg/kg/injection, schedule: Q01DX001 (ip), vehicle: other 98 % of control | dose: 200.0 mg/kg/injection, schedule: Q01DX001 (ip), vehicle: other 101 % of control | dose: 400.0 mg/kg/injection, schedule: Q01DX001 (ip), vehicle: other 107 % of control

Clc1cccc(Cl)c1C[N+]12CN3CN(CN(C3)C1)C2
inactive: dose: 30.0 mg/kg/injection, schedule: Q01DX015 (ip), vehicle: saline 95 % of control | dose: 60.0 mg/kg/injection, schedule: Q01DX015 (ip), vehicle: saline 100 % of control | dose: 120.0 mg/kg/injection, schedule: Q01DX015 (ip), vehicle: saline 105 % of control

CC(C)N(CCC#N)CN1C(=O)c2ccccc2C1=O
inactive: dose: 100.0 mg/kg/injection, schedule: Q01DX009 (ip), vehicle: Klucel (hydroxypropylcellulose) (HPC) 94 % of control | dose: 200.0 mg/kg/injection, schedule: Q01DX009 (ip), vehicle: Klucel (hydroxypropylcellulose) (HPC) 91 % of control

CC(=O)OCC1OC(n2cnc3c(=O)[nH]c(N)nc32)C(OC(C)=O)C1OC(C)=O (centres undefined)
inactive: dose: 100.0 mg/kg/injection, schedule: Q01DX005 (ip), vehicle: saline 91 % of control | dose: 200.0 mg/kg/injection, schedule: Q01DX005 (ip), vehicle: saline 102 % of control and 109 % of control
